Assays:
B16F10 cells = assay: Cell proliferation assay (alamarBlue), B16F10; format: cell-based; conditions: Mus musculus, B16-F10; B16F10 (melanoma, BRAF wild-type), 96 hours
Description: In accordance with the invention, the ability of the substances to inhibit cell proliferation was determined. Cell viability was determined by means of the alamarBlue® reagent (Invitrogen) in a Victor X3 Multilabel Reader (Perkin Elmer). The excitation wavelength was 530 nm and the emission wavelength […].
The B16F10 cells (ATCC, CRL-6475) were sown at a concentration of 300-500 cells/well in 100 μl of growth medium (DMEM with phenol red, 10% FCS) on 96-well microtitre plates.
After overnight incubation at 37° C., the fluorescence values were determined (CI values). Then the plates were treated with various substance dilutions (1E-5 M, 3E-6 M, 1E-6 M, 3E-7 M, 1E-7 M, 3E-8 M, 1E-8 M) and incubated at 37° C. over 96 hours (MOLM-13, B16F10, CHL-1 cells) or 120 hours (MOLP-8 cells). Subsequently, the fluorescence values were determined (CO values). For the data analysis, the CI values were subtracted from the CO values and the results were compared between cells which had been treated with various dilutions of the substance or only with buffer solution. The IC50 values (substance concentration needed for 50% inhibition of cell proliferation) were calculated therefrom.

[1] = target: T1, BRD4 bromo domain 1 [BRD4(1)] (Homo sapiens, UniProt O60885); assay: BRD4/acetylated peptide H4 binding assay (TR-FRET), BRD4 bromo domain 1; conditions: inhibition of BRD4(1)/Ac-H4 peptide interaction
T1 construct: N-terminally His6-tagged BRD4(1) (amino acids 67-152); made in house; host or cells: E. coli
In short: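 TR-FRET (665/620 nm ratio) measuring displacement of biotinylated tetra-acetylated H4 peptide from His6-BRD4(1) (aa 67-152, E. coli; typically 10 nM) at pH 7.5. Compound (11 concentrations, 0.1 nM–20 μM, duplicates) was preincubated 10 min at 22°C, then 1 h at 22°C and ≥3 h at 4°C; IC50 from 4-parameter fit normalized to DMSO and no-BRD4 controls.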

Compound	IC50 (B16F10 cells) [nM]	IC50 [1] [nM]
C[C@@H]1C(=O)N(C)c2ccc(Nc3cccc(C(=O)N4CCN(C)CC4)c3)nc2N1C1CCOCC1 [Example 15, (3R)-1,3-Dimethyl-6-({3-[(4-methylpiperazin-1-yl)carbonyl]phenyl}amino)-4-(tetrahydro-2H-pyran-4-yl)-3,4-dihydropyrido[2,3-b]pyrazin-2(1H)-one]	1080	108
C[C@@H]1C(=O)N(C)c2ccc(Nc3cccc(C(=O)N[C@H]4CC[C@H](N5CCN(CC6CC6)CC5)CC4)c3)nc2N1C1CCOCC1 [Example 14, N-{trans-4-[4-(Cyclopropylmethyl)piperazin-1-yl]cyclohexyl}-3-{[(3R)-1,3-dimethyl-2-oxo-4-(tetrahydro-2H-pyran-4-yl)-1,2,3,4-tetrahydropyrido[2,3-b]pyrazin-6-yl]amino}benzamide]	809	144
C[C@@H]1C(=O)N(C)c2ccc(Nc3cccc(S(=O)(=O)N4CCN(C)CC4)c3)nc2N1C1CCNCC1 [Example 125, (3R)-1,3-dimethyl-6-({3-[(4-methylpiperazin-1-yl)sulphonyl]phenyl}amino)-4-(piperidin-4-yl)-3,4-dihydropyrido[2,3-b]pyrazin-2(1H)-one]	> 10000	37
C[C@@H]1C(=O)N(C)c2ccc(Nc3cccc(S(=O)(=O)NC4CCN(C)CC4)c3)nc2N1C1CCNCC1 [Example 124, 3-{[(3R)-1,3-dimethyl-2-oxo-4-(piperidin-4-yl)-1,2,3,4-tetrahydropyrido[2,3-b]pyrazin-6-yl]amino}-N-(1-methylpiperidin-4-yl)benzenesulphonamide]	> 20000	30
C[C@@H]1C(=O)N(C)c2ccc(Nc3cccc(S(=O)(=O)N(C)C)c3)cc2N1C1CCNCC1 [Example 129, 3-{[(3R)-1,3-dimethyl-2-oxo-4-(piperidin-4-yl)-1,2,3,4-tetrahydroquinoxalin-6-yl]amino}-N,N-dimethylbenzenesulphon-amide]	2160	45
C[C@@H]1C(=O)N(C)c2ccc(Nc3cccc(C(=O)N(C)C)c3)cc2N1C1CCNCC1 [Example 133, 3-{[(3R)-1,3-dimethyl-2-oxo-4-(piperidin-4-yl)-1,2,3,4-tetrahydroquinoxalin-6-yl]amino}-N,N-dimethylbenzamide]	> 20000	124
C[C@@H]1C(=O)N(C)c2ccc(Nc3cccc(S(=O)(=O)N[C@H]4CC[C@H](N5CCN(CC6CC6)CC5)CC4)c3)nc2N1C1CCNCC1 [Example 127, N-{trans-4-[4-(cyclopropylmethyl)piperazin-1-yl]cyclohexyl}-3-{[(3R)-1,3-dimethyl-2-oxo-4-(piperidin-4-yl)-1,2,3,4-tetrahydropyrido[2,3-b]pyrazin-6-yl]amino}-benzenesulphonamide]	> 20000	47
C[C@@H]1C(=O)N(C)c2ccc(Nc3cccc(S(=O)(=O)NCCN(C)C)c3)nc2N1C1CCN(C(=O)OC(C)(C)C)CC1 [Example 59, tert-butyl 4-[(3R)-6-[(3-{[2-(dimethylamino)ethyl]-sulphamoyl}phenyl)amino]-1,3-dimethyl-2-oxo-2,3-dihydropyrido[2,3-b]pyrazin-4(1H)-yl]piperidine-1-carboxylate]	1140	156
C[C@@H]1C(=O)N(C)c2ccc(Nc3cccc(S(=O)(=O)NCC4CCN(C)CC4)c3)nc2N1C1CCOCC1 [Example 44, 3-{[(3R)-1,3-dimethyl-2-oxo-4-(tetrahydro-2H-pyran-4-yl)-1,2,3,4-tetrahydropyrido[2,3-b]pyrazin-6-yl]amino}-N-[(1-methylpiperidin-4-yl)methyl]benzene-sulphonamide]	944	50
C[C@@H]1C(=O)N(C)c2ccc(Nc3cccc(S(=O)(=O)NC4CCN(C)CC4)c3)nc2N1C1CCCCCC1 [Example 48, 3-{[(3R)-4-cycloheptyl-1,3-dimethyl-2-oxo-1,2,3,4-tetrahydropyrido-[2,3-b]pyrazin-6-yl]amino}-N-(1-methylpiperidin-4-yl)benzenesulphonamide]	586	75
Cc1nnc(-c2cccc(Nc3ccc4c(n3)N(C3CCOCC3)[C@H](C)C(=O)N4C)c2)o1 [Example 134, (3R)-1,3-Dimethyl-6-{[3-(5-methyl-1,3,4-oxadiazol-2-yl)phenyl]amino}-4-(tetrahydro-2H-pyran-4-yl)-3,4-dihydropyrido[2,3-b]pyrazin-2(1H)-one]	768	179

Stronger by IC50 (B16F10 cells), values ahead:

IC50 (B16F10 cells) [nM]	IC50 [1] [nM]	Compound
135	51	COc1ccc(S(=O)(=O)N2CCN(C)CC2)cc1Nc1ccc2c(n1)N(C1CCN(C)CC1)[C@H](C)C(=O)N2C [Example 46, (3R)-6-({2-methoxy-5-[(4-methylpiperazin-1-yl)sulphonyl]phenyl}-amino)-1,3-dimethyl-4-(1-methylpiperidin-4-yl)-3,4-dihydropyrido[2,3-b]pyrazin-2(1H)-one]
165	44	COc1ccc(S(=O)(=O)N2CC3(COC3)C2)cc1Nc1ccc2c(n1)N(C1CCOCC1)[C@H](C)C(=O)N2C [Example 30, (3R)-6-{[2-Methoxy-5-(2-oxa-6-azaspiro[3.3]hept-6-ylsulphonyl)phenyl]amino}-1,3-dimethyl-4-(tetrahydro-2H-pyran-4-yl)-3,4-dihydropyrido[2,3-b]pyrazin-2(1H)-one]
112	16	C[C@@H]1C(=O)N(C)c2ccc(Nc3cccc(S(=O)(=O)N4CCCC4)c3)nc2N1C1CCN(C)CC1 [Example 24, (3R)-1,3-Dimethyl-4-(1-methylpiperidin-4-yl)-6-{[3-(pyrrolidin-1-ylsulphonyl)phenyl]amino}-3,4-dihydropyrido[2,3-b]pyrazin-2(1H)-one]
381	118	C[C@@H]1C(=O)N(C)c2ccc(Nc3cccc(C(=O)N4CCN(C)CC4)c3)nc2N1Cc1ccccc1 [Example 75]
60	17	C[C@@H]1C(=O)N(C)c2ccc(Nc3cccc(S(=O)(=O)N4CCCC4)c3)nc2N1C1CCOCC1 [Example 27, (3R)-1,3-Dimethyl-6-{[3-(pyrrolidin-1-ylsulphonyl)phenyl]amino}-4-(tetrahydro-2H-pyran-4-yl)-3,4-dihydropyrido[2,3-b]pyrazin-2(1H)-one]
537	49	CC(C)N1c2nc(Nc3cccc(S(=O)(=O)N4CCN(C)CC4)c3)ccc2N(C)C(=O)[C@H]1C [Example 43, (3R)-4-isopropyl-1,3-dimethyl-6-({3-[(4-methylpiperazin-1-yl)sulphonyl]phenyl}-amino)-3,4-dihydropyrido-[2,3-b]pyrazin-2(1H)-one]
506	99	C[C@@H]1C(=O)N(C)c2ccc(Nc3cccc(C(=O)N[C@H]4CC[C@H](N5CCN(CC6CC6)CC5)CC4)c3)nc2N1C1CCCC1 [Example 5, 3-{[(3R)-4-Cyclopentyl-1,3-dimethyl-2-oxo-1,2,3,4-tetrahydropyrido[2,3-b]pyrazin-6-yl]amino}-N-{trans-4-[4-(cyclopropylmethyl)piperazin-1-yl]cyclohexyl}benzamide]
149	38	CNS(=O)(=O)c1cccc(Nc2ccc3c(n2)N(C2CCOCC2)[C@H](C)C(=O)N3C)c1 [Example 39, 3-{[(3R)-1,3-dimethyl-2-oxo-4-(tetrahydro-2H-pyran-4-yl)-1,2,3,4-tetrahydropyrido[2,3-b]pyrazin-6-yl]amino}-N-methylbenzenesulphon-amide]
146	26	C[C@@H]1C(=O)N(C)c2ccc(Nc3cccc(S(=O)(=O)N[C@H]4CC[C@H](N5CCN(CC6CC6)CC5)CC4)c3)nc2N1C1CCOCC1 [Example 35, N-{trans-4-[4-(cyclopropylmethyl)-piperazin-1-yl]cyclohexyl}-3-{[(3R)-1,3-dimethyl-2-oxo-4-(tetrahydro-2H-pyran-4-yl)-1,2,3,4-tetrahydropyrido[2,3-b]pyrazin-6-yl]amino}-benzenesulphonamide]
544	56	C[C@@H]1C(=O)N(C)c2ccc(Nc3cccc(S(=O)(=O)N4CCN(C)CC4)c3)nc2N1C1CCOCC1 [Example 12, (3R)-1,3-Dimethyl-6-({3-[(4-methylpiperazin-1-yl)sulphonyl]phenyl}amino)-4-(tetrahydro-2H-pyran-4-yl)-3,4-dihydropyrido[2,3-b]pyrazin-2(1H)-one]
93	28	C[C@@H]1C(=O)N(C)c2ccc(Nc3cccc(S(=O)(=O)N4CCN(CC(F)(F)F)CC4)c3)nc2N1C1CCOCC1 [Example 37, (3R)-1,3-dimethyl-4-(tetrahydro-2H-pyran-4-yl)-6-[(3-{[4-(2,2,2-trifluoroethyl)piperazin-1-yl]sulphonyl}phenyl)-amino]-3,4-dihydropyrido-[2,3-b]pyrazin-2(1H)-one]
